As usually defined, the IC50 is the point on the concentration scale where inhibition reaches its midpoint.

The target in one experiment is BACE1 (Homo sapiens, UniProt P56817). The experiment can be described thus: In vitro enzymatic BACE FRET (fluorescence resonance energy transfer) assay. The class given is biochemical. As for the experimental part:
In Vitro Enzymatic BACE FRET (Fluorescence Resonance Energy Transfer) Assay (Enzyme Assay Data in Table 1)
The assay buffer used in this screen is 0.05 M acetate, pH 4.2, 10% DMSO final, 100 uM genapol (which is a nonionic detergent, below its Critical Micelle Concentration). […] The assay is effectively started by the addition of FRET substrate (50 nM) and the combination is incubated for one hour. The FRET assay is terminated with by addition of Tris buffer, which raises the pH to neutrality, and the fluorescence is determined. The FRET substrate is a peptide with commercially available fluorophore and quencher, on opposite sides of the BACE cleavage site. Proteolytic cleavage of the FRET substrate releases quenching of fluorescence (excitation […] and emission […]).

Experiment [1] deals with Cells stably expressing Amyloid Precursor Protein (APP). The experiment in a line: In vitro BACE cell-based assay (HEK cell assay): Aβ40 in conditioned medium by sandwich ELISA. To be noted: Homo sapiens, HEK293, 24 h, Aβ40 in conditioned medium after 24 h incubation. As for the experimental part:
In Vitro BACE Cell-Based Assay:
The cell-based assay measures inhibition or reduction of Aβ40 in conditioned medium of test compound treated cells expressing amyloid precursor protein.
Cells stably expressing Amyloid Precursor Protein (APP) were plated at a density of 40K cells/well in 96 well plates (Costar). The cells were cultivated for 24 hours at 37° C. and 5% CO2 in DMEM supplemented with 10% FBS. The test compounds were then added to cells in 10-point dose response concentrations with the starting concentration being either 100 μM or 10 μM. The compounds were diluted from stock solutions in DMSO and the final DMSO concentration of the test compounds on cells was 0.1%. After 24 h of incubation with the test compounds the supernatant conditioned media was collected and the Aβ 40 levels were determined using a sandwich ELISA. The IC50 of the compound was calculated from the percent of control or percent inhibition of Aβ 40 as a function of the concentration of the test compound.
The sandwich ELISA to detect Aβ 40 was performed in 96 well microtiter plates, which were pre-treated with goat anti-rabbit IgG (Pierce). The capture and detecting antibody pair that were used to detect Aβ 40 from cell supernatants were affinity purified pAb40 (Biosource) and biotinylated 6E10 (Signet Labs Inc.), respectively. The optimal concentration for the pAb40 antibody was 3 μg/ml in Superblock/TBS (Pierce) that was supplemented with 0.05% Tween 20 (Sigma). Optimal concentration for the detection antibody 6E10-biotinylated was 0.5 μg/ml in Superblock/TBS (Pierce) that had been supplemented with 2% normal goat serum and 2% normal mouse serum.
Cellular supernatants were incubated with the capture antibody for 3 h at 4° C., followed by 3 wash steps in TBS-tween (0.05%). The detecting antibody incubation was for 2 h at 4° C., again followed by the wash steps as described previously. The final readout of the ELISA is Time-Resolved Fluorescence (counts per minute) using Delfia reagents Streptavidin-Europium and Enhancement solutions (Perkin Elmer) and the Victor 2 multilabel counter (Perkin Elmer).
Of the compounds tested, in-the cell-based assay, data for each of Examples 33-156 is provided in Table 1 and Examples 208-246 are provided in Table 4.
(In general: An ELISA detects its analyte on a solid surface through an enzyme-linked reagent.)

BACE1, sequence (P56817 46-501, species assumed): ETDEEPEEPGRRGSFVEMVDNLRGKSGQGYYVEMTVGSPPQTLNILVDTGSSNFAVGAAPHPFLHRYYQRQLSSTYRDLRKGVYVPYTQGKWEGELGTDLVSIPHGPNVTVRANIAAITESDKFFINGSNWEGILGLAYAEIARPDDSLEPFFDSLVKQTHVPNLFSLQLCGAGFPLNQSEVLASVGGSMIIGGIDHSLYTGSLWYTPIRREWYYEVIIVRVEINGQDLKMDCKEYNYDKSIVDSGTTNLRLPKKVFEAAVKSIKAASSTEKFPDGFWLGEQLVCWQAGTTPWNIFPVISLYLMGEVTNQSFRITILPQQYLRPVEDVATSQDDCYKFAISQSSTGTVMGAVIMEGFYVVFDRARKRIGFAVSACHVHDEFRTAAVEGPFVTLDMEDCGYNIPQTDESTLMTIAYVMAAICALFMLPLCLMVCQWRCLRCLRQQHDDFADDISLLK

`C=CC[C@H](NC(=O)COC)[C@H](O)CN[C@H]1CC2(CCC2)Oc2c1cc(CC(C)(C)C)nc2N1CCCC1` [Example 49, N-((1S)-1-((1R)-2-(((4′S)-6′-(2,2-dimethylpropyl)-8′-(1-pyrrolidinyl)-3′,4′-dihydrospiro[cyclobutane-1,2′-pyrano[2,3-c]pyridin]-4′-yl)amino)-1-hydroxyethyl)-3-buten-1-yl)-2-(methyloxy)acetamide]: the results for the half-inhibitory concentration (IC50) (at BACE1; in experiment [1]) were 84 nM and 90 nM, respectively.
The like results for `C=CC[C@H](NC(C)=O)[C@H](O)CN[C@H]1C[C@@]2(CC[C@H]2O)Oc2ncc(CC(C)(C)C)cc21` [Example 50, N-((1S)-1-((1R)-2-(((1R,2R,4′S)-6′-(2,2-dimethylpropyl)-2-hydroxy-3′,4′-dihydrospiro[cyclobutane-1,2′-pyrano[2,3-b]pyridin]-4′-yl)amino)-1-hydroxyethyl)-3-buten-1-yl)acetamide] were, in that order, 4160 nM and at least 10000 nM.
On to `C=CC[C@H](NC(C)=O)[C@H](O)CN[C@H]1C[C@]2(CC[C@@H]2O)Oc2ncc(CC(C)(C)C)cc21` [Example 51, N-((1S)-1-((1R)-2-(((1S,2S,4′S)-6′-(2,2-dimethylpropyl)-2-hydroxy-3′,4′-dihydrospiro[cyclobutane-1,2′-pyrano[2,3-b]pyridin]-4′-yl)amino)-1-hydroxyethyl)-3-buten-1-yl)acetamide], for which the concentration for half-maximal inhibition (IC50) at BACE1 came out at 63 nM; in experiment [1] it was 212 nM.
The like results for `C=CC[C@H](NC(=O)COC)[C@H](O)CN[C@H]1CC2(CCC2)Oc2ncc(CC(C)(C)C#N)cc21` [Example 55, N-((1S)-1-((1R)-2-(((4′S)-6′-(2-cyano-2-methylpropyl)-3′,4′-dihydrospiro[cyclobutane-1,2′-pyrano[2,3-b]pyridin]-4′-yl)amino)-1-hydroxyethyl)-3-buten-1-yl)-2-(methyloxy)acetamide] were, in that order, 3400 nM and 7580 nM.
On the same counts, the results for `C=CC[C@H](NC(=O)c1cncc(F)c1)[C@H](O)CN[C@H]1CC2(CCC2)Oc2ncc(CC(C)(C)C)cc21` [Example 56, N-((1S)-1-((1R)-2-(((4′S)-6′-(2,2-dimethylpropyl)-3′,4′-dihydrospiro[cyclobutane-1,2′-pyrano[2,3-b]pyridin]-4′-yl)amino)-1-hydroxyethyl)-3-buten-1-yl)-5-fluoro-3-pyridinecarboxamide] are 125 nM and 392 nM.
The like results for `C=CC[C@H](NC(=O)c1cccnn1)[C@H](O)CN[C@H]1CC2(CCC2)Oc2ncc(CC(C)(C)C)cc21` [Example 57, N-((1S)-1-((1R)-2-(((4′S)-6′-(2,2-dimethylpropyl)-3′,4′-dihydrospiro[cyclobutane-1,2′-pyrano[2,3-b]pyridin]-4′-yl)amino)-1-hydroxyethyl)-3-buten-1-yl)-3-pyridazinecarboxamide] were, in that order, 131 nM and 228 nM.
`C=CC[C@H](NC(=O)c1ccc(F)cc1)[C@H](O)CN[C@H]1CC2(CCC2)Oc2ncc(CC(C)(C)C)cc21` [Example 58, N-((1S)-1-((1R)-2-(((4′S)-6′-(2,2-dimethylpropyl)-3′,4′-dihydrospiro[cyclobutane-1,2′-pyrano[2,3-b]pyridin]-4′-yl)amino)-1-hydroxyethyl)-3-buten-1-yl)-4-fluorobenzamide]: the IC50 at BACE1 worked out at 172 nM; in experiment [1], 666 nM.
The like results for `C=CC[C@H](NC(=O)c1ccccc1)[C@H](O)CN[C@H]1CC2(CCC2)Oc2ncc(CC(C)(C)C)cc21` [Example 59, N-((1S)-1-((1R)-2-(((4′S)-6′-(2,2-dimethylpropyl)-3′,4′-dihydrospiro[cyclobutane-1,2′-pyrano[2,3-b]pyridin]-4′-yl)amino)-1-hydroxyethyl)-3-buten-1-yl)benzamide] were, in that order, 125 nM and 349 nM.
The like results for `C=CC[C@H](NC(=O)c1ccc(F)c(F)c1)[C@H](O)CN[C@H]1CC2(CCC2)Oc2ncc(CC(C)(C)C)cc21` [Example 60, N-((1S)-1-((1R)-2-(((4′S)-6′-(2,2-dimethylpropyl)-3′,4′-dihydrospiro[cyclobutane-1,2′-pyrano[2,3-b]pyridin]-4′-yl)amino)-1-hydroxyethyl)-3-buten-1-yl)-3,4-difluorobenzamide] were, in that order, 87 nM and 361 nM.
With `C=CC[C@H](NC(=O)c1cc(F)cc(F)c1)[C@H](O)CN[C@H]1CC2(CCC2)Oc2ncc(CC(C)(C)C)cc21` [Example 61, N-((1S)-1-((1R)-2-(((4′S)-6′-(2,2-dimethylpropyl)-3′,4′-dihydrospiro[cyclobutane-1,2′-pyrano[2,3-b]pyridin]-4′-yl)amino)-1-hydroxyethyl)-3-buten-1-yl)-3,5-difluorobenzamide], the values for the half-inhibitory concentration (IC50) (at BACE1; in experiment [1]) were 5 nM and 29.1 nM, respectively.
On to `C=CC[C@H](NC(=O)c1ccc(F)cn1)[C@H](O)CN[C@H]1CC2(CCC2)Oc2ncc(CC(C)(C)C)cc21` [Example 62, N-((1S)-1-((1R)-2-(((4′S)-6′-(2,2-dimethylpropyl)-3′,4′-dihydrospiro[cyclobutane-1,2′-pyrano[2,3-b]pyridin]-4′-yl)amino)-1-hydroxyethyl)-3-buten-1-yl)-5-fluoro-2-pyridinecarboxamide], for which the half-inhibitory concentration (IC50) was 561 nM on BACE1 and 4980 nM in experiment [1].
The like results for `C=CC[C@H](NC(=O)c1ccc(OC)nc1)[C@H](O)CN[C@H]1CC2(CCC2)Oc2ncc(CC(C)(C)C)cc21` [Example 63, N-((1S)-1-((1R)-2-(((4′S)-6′-(2,2-dimethylpropyl)-3′,4′-dihydrospiro[cyclobutane-1,2′-pyrano[2,3-b]pyridin]-4′-yl)amino)-1-hydroxyethyl)-3-buten-1-yl)-6-(methyloxy)-3-pyridinecarboxamide] were, in that order, 215 nM and 1400 nM.
On the same counts, the results for `C=CC[C@H](NC(=O)c1cccc(F)c1)[C@H](O)CN[C@H]1CC2(CCC2)Oc2ncc(CC(C)(C)C)cc21` [Example 64, N-((1S)-1-((1R)-2-(((4′S)-6′-(2,2-dimethylpropyl)-3′,4′-dihydrospiro[cyclobutane-1,2′-pyrano[2,3-b]pyridin]-4′-yl)amino)-1-hydroxyethyl)-3-buten-1-yl)-3-fluorobenzamide] are 371 nM and 2580 nM.
The like results for `C=CC[C@H](NC(=O)c1cccnc1OC)[C@H](O)CN[C@H]1CC2(CCC2)Oc2ncc(CC(C)(C)C)cc21` [Example 65, N-((1S)-1-((1R)-2-(((4′S)-6′-(2,2-dimethylpropyl)-3′,4′-dihydrospiro[cyclobutane-1,2′-pyrano[2,3-b]pyridin]-4′-yl)amino)-1-hydroxyethyl)-3-buten-1-yl)-2-(methyloxy)-3-pyridinecarboxamide] were, in that order, 475 nM and 258 nM.
Consider `C=CC[C@H](NC(=O)c1ccc(F)nc1)[C@H](O)CN[C@H]1CC2(CCC2)Oc2ncc(CC(C)(C)C)cc21` [Example 66, N-((1S)-1-((1R)-2-(((4′S)-6′-(2,2-dimethylpropyl)-3′,4′-dihydrospiro[cyclobutane-1,2′-pyrano[2,3-b]pyridin]-4′-yl)amino)-1-hydroxyethyl)-3-buten-1-yl)-6-fluoro-3-pyridinecarboxamide], for which the 50% inhibitory concentration (IC50) at BACE1 was 179 nM; in experiment [1], 71 nM.
